Reference: ChEMBL document CHEMBL1201862, “PubChem BioAssay data set” (2004)
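Dose response: 5 concentrations. Exposure: 48 h. Format: 96-well plates. Endpoint: linear interpolation; highest concentration if not reached. GI50 is the concentration that inhibits growth by half.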 Activity calls are given as the source filed them. Cut-off read from the data, not from the text of the source: active = GI50 up to about 1.1 µM and inactive = higher.

How the values were obtained:
Assay in all cases: DTP human tumour cell line panel, 48 h
SR = system: SR
K562 = system: K562
OVCAR-3 = system: OVCAR-3
RPMI-8226 = system: RPMI-8226
SF-295 = system: SF-295
UO-31 = system: UO-31
MDA-MB-435 = system: MDA-MB-435
OVCAR-5 = system: OVCAR-5
SW-620 = system: SW-620
NCI-H522 = system: NCI-H522
U-251 = system: U-251
NCI-H226 = system: NCI-H226
PC-3 = system: PC-3
HL-60 = system: HL-60
MOLT-4 = system: MOLT-4
IGROV-1 = system: IGROV-1
SK-OV-3 = system: SK-OV-3
SF-539 = system: SF-539
SK-MEL-5 = system: SK-MEL-5
SK-MEL-2 = system: SK-MEL-2

| Compound | GI50 (SR) | GI50 (K562) | GI50 (OVCAR-3) | GI50 (RPMI-8226) | GI50 (SF-295) | GI50 (UO-31) | GI50 (MDA-MB-435) | GI50 (OVCAR-5) | GI50 (SW-620) | GI50 (NCI-H522) | GI50 (U-251) | GI50 (NCI-H226) | GI50 (PC-3) | GI50 (HL-60) | GI50 (MOLT-4) | GI50 (IGROV-1) | GI50 (SK-OV-3) | GI50 (SF-539) | GI50 (SK-MEL-5) | GI50 (SK-MEL-2) |
| --- | --- | --- | --- | --- | --- | --- | --- | --- | --- | --- | --- | --- | --- | --- | --- | --- | --- | --- | --- | --- |
| CC(C)/C(Cl)=N/OC(NC(=O)Nc1ccc(Cl)c(Cl)c1)(C(F)(F)F)C(F)(F)F | 3.56 µM (inactive) | 3.05 µM (inactive) | 5.9 µM (inactive) | 1.72 µM (inactive) | 19.8 µM (inactive) | 17.3 µM (inactive) | 16.4 µM (inactive) | 19.7 µM (inactive) | 1.81 µM (inactive) | 1.69 µM (inactive) | 17.3 µM (inactive) | 19.9 µM (inactive) | 13.6 µM (inactive) | 2.54 µM (inactive) | 3.2 µM (inactive) | 16.2 µM (inactive) | 18.2 µM (inactive) | 17.4 µM (inactive) | 15.8 µM (inactive) |  |
| CCOC(=O)NN(C(=O)OCC)C(C(=O)c1ccccc1)N(NC(=O)OCC)C(=O)OCC | > 100 µM (inactive) | > 100 µM (inactive) | > 100 µM (inactive) | > 100 µM (inactive) | > 100 µM (inactive) | > 100 µM (inactive) | > 100 µM (inactive) | > 100 µM (inactive) | > 100 µM (inactive) | > 100 µM (inactive) | > 100 µM (inactive) | > 100 µM (inactive) | > 100 µM (inactive) | > 100 µM (inactive) | > 100 µM (inactive) | > 100 µM (inactive) | > 100 µM (inactive) | > 100 µM (inactive) | > 100 µM (inactive) |  |
| Cc1cn(C(CO)OC(CO)CN(O)C2C3CC4CC(C3)CC2C4)c(=O)[nH]c1=O (stereo unspecified) | > 100 µM (inactive) | > 100 µM (inactive) |  | > 100 µM (inactive) | > 100 µM (inactive) | > 100 µM (inactive) | > 100 µM (inactive) | > 100 µM (inactive) | > 100 µM (inactive) |  | > 100 µM (inactive) | > 100 µM (inactive) | > 100 µM (inactive) | > 100 µM (inactive) | > 100 µM (inactive) | > 100 µM (inactive) | > 100 µM (inactive) | > 100 µM (inactive) | > 100 µM (inactive) | > 100 µM (inactive) |
| O=C(CSc1nc2ccccc2c(=O)n1-c1ccccc1)N/N=C1\C(=O)Nc2ccc(F)cc21 | 1.53 µM (inactive) | 1.61 µM (inactive) | 1.91 µM (inactive) | 2.3 µM (inactive) | 1.87 µM (inactive) | 2 µM (inactive) | 3.64 µM (inactive) | 2.04 µM (inactive) | 4.24 µM (inactive) |  | 8.93 µM (inactive) | 2.28 µM (inactive) | 1.85 µM (inactive) | 1.82 µM (inactive) | 1.61 µM (inactive) |  | 1.81 µM (inactive) | 3.14 µM (inactive) | 3.3 µM (inactive) | 1.88 µM (inactive) |
| Cc1ccc(C(=O)CCC2C(=O)CC(C)(C)CC2=O)cc1 | 15.7 µM (inactive) |  | > 100 µM (inactive) |  | > 100 µM (inactive) | > 100 µM (inactive) | > 100 µM (inactive) | > 100 µM (inactive) | > 100 µM (inactive) | 16.6 µM (inactive) | > 100 µM (inactive) | > 100 µM (inactive) | > 100 µM (inactive) |  | > 100 µM (inactive) | > 100 µM (inactive) | > 100 µM (inactive) | > 100 µM (inactive) | > 100 µM (inactive) | > 100 µM (inactive) |
| S=C(N/N=C\c1ccccn1)N(Cc1ccccn1)Cc1ccccn1 | 1.42 µM (inactive) | 0.205 µM (active) | 1.94 µM (inactive) | 1.17 µM (inactive) | 1.65 µM (inactive) | 1.26 µM (inactive) | 4.45 µM (inactive) | 13 µM (inactive) | 0.333 µM (active) | 0.0637 µM (active) | 0.195 µM (active) | < 0.0419 µM (active) | 6.89 µM (inactive) |  | 0.0582 µM (active) | 0.427 µM (active) | 2.04 µM (inactive) | 4.68 µM (inactive) | 1.07 µM (active) | 11.6 µM (inactive) |
| CCCCCCCCCCCCCCCC1(OC)C[N+](C)(C)CCO1 (stereo unspecified) | 2.25 µM (inactive) | 1.85 µM (inactive) | 1.75 µM (inactive) |  | 1.69 µM (inactive) |  | 1.96 µM (inactive) | 2.23 µM (inactive) | 3.21 µM (inactive) | 1.65 µM (inactive) | 1.6 µM (inactive) | 1.08 µM (active) | 2.4 µM (inactive) | 0.0883 µM (active) | 1.12 µM (inactive) | 1.61 µM (inactive) | 4.89 µM (inactive) | 1.74 µM (inactive) | 1.9 µM (inactive) | 2.38 µM (inactive) |
| O=C1Nc2ccccc2/C1=N/Nc1nc(-c2cccc([N+](=O)[O-])c2)cs1 | 53 µM (inactive) |  | 34.8 µM (inactive) |  | 20.7 µM (inactive) | 55.3 µM (inactive) | 34.4 µM (inactive) | > 100 µM (inactive) | 36.8 µM (inactive) | 20.1 µM (inactive) | 21.4 µM (inactive) | 19.2 µM (inactive) | 28.2 µM (inactive) | 25.1 µM (inactive) | 31.5 µM (inactive) | 21.6 µM (inactive) | 29.9 µM (inactive) | 24 µM (inactive) | 20.2 µM (inactive) | 31.5 µM (inactive) |
